# Measurements taken from ChEMBL document CHEMBL1201862, “PubChem BioAssay data set” (2004).
# The source made the active and inactive calls.
# How the values were obtained:
# BJ [1] = experiment: cytotoxicity toward BJ-TERT fibroblasts, dose response, cell-based, RAS-independent, luminescence (AID 1933); type: functional; settings: Homo sapiens
# [2] = Luminescence Cell-Based Dose Retest to Confirm Activators of 5'UTR Stem-Loop Driven Alpha-Synuclein mRNA Translation in H4 Neuroglioblastoma Cells. [Related pubchem assays (depositor defined):AID1813, AID1829]; type: functional
# BJ [3] = experiment: cytotoxicity toward Ras-transformed BJeLR fibroblasts, dose response, cell-based, alamar blue fluorescence, cherrypicked samples (AID 2631); type: functional; settings: Homo sapiens;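 also: confirmatory dose-response assay in RAS-dependent BJ fibroblasts engineered with TERT, LT and ST, with cytotoxicity read by fluorescence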
# [4] = cytotoxicity toward DRD oncogenic fibroblasts, dose response, cell-based, non-viral oncogenic, luminescence (AID 1934); type: functional; settings: Homo sapiens
# BJ [5] = experiment: cells; type: functional, cell-based; settings: Homo sapiens
# [6] = inhibitors of SNCA 5'UTR-driven reporter translation, confirmation, H4 neuroglioma cells, luminescence (AID 1988); type: functional, cell-based
# BJ [7] = experiment: cytotoxicity toward BJ-TERT-LT-ST fibroblasts, dose response, cell-based, RAS-independent, luminescence (AID 1935); type: functional; settings: Homo sapiens;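 also: BJ fibroblasts immortalized with TERT plus LT and ST oncogenes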
# [8] = Luminescence Cell-Based Dose Response HTS to Identify Activators of Luciferase Translation or Activity in H4-C Neuroglioblastoma Cells. [Related pubchem assays: 1829 (Project Summary), 1814 (Primary HTS)]; type: functional
# [9] = Luminescence Cell-Based Dose Response HTS to Identify Inhibitors of 5'UTR Stem-Loop Driven Prion Protein mRNA Translation in H4 Neuroglioblastoma Cells. [Related pubchem assays: 1827 (Project Summary), 1813 (Primary HTS)]; type: functional
# [10] = Luminescence Cell-Based Dose Confirmation HTS to Identify Inhibitors of 5'UTR Stem-Loop Driven Alpha-Synuclein mRNA Translation in H4 Neuroglioblastoma Cells. [Related pubchem assays: 1827 (Project Summary), 1813 (Primary HTS)]; type: functional
# [11] = inhibitors of firefly luciferase expression or activity, dose response, H4 neuroglioma cells, luminescence (AID 1990); type: functional, cell-based
# [12] = Luminescence Cell-Based Dose Response HTS to Identify Inhibitors of Luciferase Translation or Activity in H4-C Neuroglioblastoma Cells. [Related pubchem assays: 1813 (Primary HTS), 1827 (Project Summary)]; type: functional
# [13] = Luminescence Cell-Based Dose HTS Response to Identify Inhibitors of 5'UTR Stem-Loop Driven Prion Protein mRNA Translation in H4-C Neuroglioblastoma Cells. [Related pubchem assays (depositor defined):AID1814, AID1827]; type: functional
# [14] = Luminescence Cell-Based Dose Response HTS to Identify Activators of 5'UTR Stem-Loop Driven Prion Protein mRNA Translation in H4-C Neuroglioblastoma Cells. [Related pubchem assays: 1829 (Project Summary), 1814 (Primary HTS)]; type: functional
# [15] = biological target: Alkaline phosphatase, placental type (Homo sapiens, UniProt P05187); experiment: PLAP enzyme inhibitors, confirmation, biochemical, luminescence (AID 1512); type: functional
# [16] = biological target: T1, Alkaline phosphatase, tissue-nonspecific isozyme (Homo sapiens, UniProt P05186); experiment: human TNAP enzyme inhibitors, SAR follow-up, biochemical, luminescent, dose response (AID 1056)
# T1 sequence (P05186 whole entry): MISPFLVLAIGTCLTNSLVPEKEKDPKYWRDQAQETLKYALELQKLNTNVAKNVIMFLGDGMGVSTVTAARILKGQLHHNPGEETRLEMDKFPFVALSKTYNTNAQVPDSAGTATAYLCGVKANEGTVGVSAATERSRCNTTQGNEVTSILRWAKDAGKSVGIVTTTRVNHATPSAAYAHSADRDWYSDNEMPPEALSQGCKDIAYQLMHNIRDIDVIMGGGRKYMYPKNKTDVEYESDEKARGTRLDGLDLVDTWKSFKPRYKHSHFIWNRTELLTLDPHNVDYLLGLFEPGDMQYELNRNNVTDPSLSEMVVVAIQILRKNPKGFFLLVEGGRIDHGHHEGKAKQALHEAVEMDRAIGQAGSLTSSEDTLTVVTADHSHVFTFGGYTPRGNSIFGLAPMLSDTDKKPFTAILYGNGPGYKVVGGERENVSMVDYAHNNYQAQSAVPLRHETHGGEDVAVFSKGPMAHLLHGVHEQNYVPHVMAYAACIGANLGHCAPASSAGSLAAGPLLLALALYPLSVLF
# [17] = biological target: T2, E3 ubiquitin-protein ligase XIAP (Homo sapiens, UniProt P98170); experiment: Counter Screen using XIAP-Bir3 for Chemical Antagonists of Bir1/2 domains of IAP-family anti-apoptotic proteins. [Related pubchem assays (depositor defined):AID1018, AID1449, AID1514, AID1638, AID1749, AID1750, AID488957, AID488963]
# [18] = biological target: T2, E3 ubiquitin-protein ligase XIAP; experiment: XIAP antagonists, biochemical, IAP family, fluorescence polarization (AID 1018); type: functional
# [19] = biological target: T3, DNA repair protein RAD52 homolog (Homo sapiens, UniProt P43351); type: functional, biochemical
# T3 sequence (P43351 whole entry): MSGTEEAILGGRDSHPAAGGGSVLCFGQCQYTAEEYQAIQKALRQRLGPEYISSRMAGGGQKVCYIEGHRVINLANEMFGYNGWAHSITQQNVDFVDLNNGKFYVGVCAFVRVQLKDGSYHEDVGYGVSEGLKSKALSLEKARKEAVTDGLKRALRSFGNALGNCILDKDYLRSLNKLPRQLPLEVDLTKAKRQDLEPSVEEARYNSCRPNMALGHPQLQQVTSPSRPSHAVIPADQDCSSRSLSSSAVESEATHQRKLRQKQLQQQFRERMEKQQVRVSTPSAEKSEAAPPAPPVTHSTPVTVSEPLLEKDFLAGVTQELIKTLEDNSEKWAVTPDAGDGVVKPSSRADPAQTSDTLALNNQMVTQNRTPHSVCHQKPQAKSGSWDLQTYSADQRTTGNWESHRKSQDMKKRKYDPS
# [20] = biological target: T4, Short transient receptor potential channel 4 (Mus musculus, UniProt Q9QUQ5); experiment: mouse TRPC4 channel activators, dose response, cell-based, HEK293 TRPC4/mu-opioid, Fluo-4 calcium (AID 434937); type: functional
# T4 sequence (Q9QUQ5 whole entry): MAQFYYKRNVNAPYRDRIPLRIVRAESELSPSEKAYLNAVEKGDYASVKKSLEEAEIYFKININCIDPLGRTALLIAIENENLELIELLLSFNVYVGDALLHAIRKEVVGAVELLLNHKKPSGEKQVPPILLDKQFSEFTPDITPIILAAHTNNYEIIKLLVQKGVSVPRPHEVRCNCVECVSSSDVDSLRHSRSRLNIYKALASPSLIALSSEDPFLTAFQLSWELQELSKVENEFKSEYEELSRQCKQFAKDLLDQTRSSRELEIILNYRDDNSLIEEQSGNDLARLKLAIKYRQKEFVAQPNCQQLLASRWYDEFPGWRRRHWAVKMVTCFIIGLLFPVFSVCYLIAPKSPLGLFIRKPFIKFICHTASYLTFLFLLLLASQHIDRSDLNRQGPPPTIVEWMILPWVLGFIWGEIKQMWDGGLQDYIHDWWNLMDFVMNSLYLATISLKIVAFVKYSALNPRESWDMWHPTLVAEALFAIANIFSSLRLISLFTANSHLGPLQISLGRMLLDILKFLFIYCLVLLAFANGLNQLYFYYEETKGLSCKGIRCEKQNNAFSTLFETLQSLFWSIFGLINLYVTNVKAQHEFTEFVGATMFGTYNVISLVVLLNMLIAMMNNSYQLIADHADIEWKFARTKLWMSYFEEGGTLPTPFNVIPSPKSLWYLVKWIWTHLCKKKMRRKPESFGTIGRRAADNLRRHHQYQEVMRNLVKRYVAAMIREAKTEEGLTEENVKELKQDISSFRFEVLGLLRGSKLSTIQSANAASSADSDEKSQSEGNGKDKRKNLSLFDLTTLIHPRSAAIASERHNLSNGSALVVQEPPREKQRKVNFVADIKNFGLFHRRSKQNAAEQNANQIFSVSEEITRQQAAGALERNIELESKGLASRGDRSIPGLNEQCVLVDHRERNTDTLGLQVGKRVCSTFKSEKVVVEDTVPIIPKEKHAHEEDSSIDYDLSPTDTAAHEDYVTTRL
# T-cell = experiment: inhibitors of CD8+ T cell–vesicle binding, dose response, mouse 2C CD8+ T cells, flow cytometry (AID 485284); type: functional
# H9c2 = experiment: cells; type: functional, cell-based; settings: Rattus norvegicus, H9c2, Myocardium;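 also: confirmatory concentration-response retest of ultra-high-throughput screening hits for modulation of myocardial damage; cell death induced by hydrogen peroxide oxidative stress; compound pretreatment for 60 min then peroxide exposure for 2 h; potency is for protecting the cells against peroxide damage rather than for killing them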
# Streptococcus = experiment: Group A Streptococcus viability loss, dose response, counter-screen for streptokinase expression inhibitor project, luminescence, BacTiterGlo (AID 1915); type: functional, organism-based;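 also: potency for reduction of bacterial viability or growth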
# [21] = system: Streptococcus sp. 'group A'; experiment: growth inhibition of control SK(-) GAS strain, dose response, counter-screen for streptokinase expression inhibitor project, luminescence, kanamycin, BacTiterGlo, confirmation (AID 1900); type: functional, organism-based
# [22] = inhibitors of intracellular T. cruzi replication, confirmation, NIH3T3 host cells, beta-gal luminescence (AID 2044); type: functional, cell-based;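 also: intracellular parasites grown in NIH/3T3 mouse fibroblasts as host cells; luminescent beta-galactosidase reporter signal from transgenic T. cruzi replicating inside host cells; inhibitors lower the luminescence signal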
# [23] = cytotoxicity toward NIH3T3 fibroblasts, dose response, counter-screen, cell-based, ATP luminescence, mouse fibroblasts (AID 2010); type: functional;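 also: cells exposed to compound for about 90 hours before reading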
# Beta-galactosidase = Beta-galactosidase (Escherichia coli, UniProt Q8VNN2); experiment: beta-galactosidase enzyme inhibitors and activators, dose response, artefact control for CCR6 antagonist project, biochemical, E. coli enzyme, set 3 (AID 504712); type: functional
# Chain of Beta-galactosidase (Q8VNN2 whole entry): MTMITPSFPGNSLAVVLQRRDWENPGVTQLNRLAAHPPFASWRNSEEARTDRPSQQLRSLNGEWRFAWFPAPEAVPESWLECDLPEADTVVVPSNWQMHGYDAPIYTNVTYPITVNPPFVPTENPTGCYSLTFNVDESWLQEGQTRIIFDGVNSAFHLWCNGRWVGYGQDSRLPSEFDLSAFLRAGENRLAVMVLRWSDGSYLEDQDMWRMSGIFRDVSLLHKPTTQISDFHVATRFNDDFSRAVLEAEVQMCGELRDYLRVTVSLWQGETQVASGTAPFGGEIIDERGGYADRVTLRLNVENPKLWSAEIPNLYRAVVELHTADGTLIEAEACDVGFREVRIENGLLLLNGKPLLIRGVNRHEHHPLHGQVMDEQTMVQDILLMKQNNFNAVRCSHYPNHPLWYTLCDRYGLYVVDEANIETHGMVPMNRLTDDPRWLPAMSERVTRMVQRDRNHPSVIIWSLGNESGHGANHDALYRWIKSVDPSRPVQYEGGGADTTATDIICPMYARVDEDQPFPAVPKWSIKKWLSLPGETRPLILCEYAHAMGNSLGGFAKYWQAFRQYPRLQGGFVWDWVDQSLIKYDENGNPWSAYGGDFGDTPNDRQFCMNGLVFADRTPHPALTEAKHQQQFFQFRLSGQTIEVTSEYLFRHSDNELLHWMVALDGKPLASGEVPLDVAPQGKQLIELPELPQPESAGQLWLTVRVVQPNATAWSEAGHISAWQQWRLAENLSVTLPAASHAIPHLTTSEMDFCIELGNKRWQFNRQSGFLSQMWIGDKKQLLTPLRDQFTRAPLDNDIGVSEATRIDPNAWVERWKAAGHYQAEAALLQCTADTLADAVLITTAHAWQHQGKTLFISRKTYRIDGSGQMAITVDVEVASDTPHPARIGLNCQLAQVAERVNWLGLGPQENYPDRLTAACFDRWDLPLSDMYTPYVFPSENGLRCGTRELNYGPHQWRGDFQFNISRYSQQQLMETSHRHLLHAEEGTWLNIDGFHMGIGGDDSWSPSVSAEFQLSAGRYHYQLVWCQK
# Chain of Alkaline phosphatase, placental type (P05187 whole entry): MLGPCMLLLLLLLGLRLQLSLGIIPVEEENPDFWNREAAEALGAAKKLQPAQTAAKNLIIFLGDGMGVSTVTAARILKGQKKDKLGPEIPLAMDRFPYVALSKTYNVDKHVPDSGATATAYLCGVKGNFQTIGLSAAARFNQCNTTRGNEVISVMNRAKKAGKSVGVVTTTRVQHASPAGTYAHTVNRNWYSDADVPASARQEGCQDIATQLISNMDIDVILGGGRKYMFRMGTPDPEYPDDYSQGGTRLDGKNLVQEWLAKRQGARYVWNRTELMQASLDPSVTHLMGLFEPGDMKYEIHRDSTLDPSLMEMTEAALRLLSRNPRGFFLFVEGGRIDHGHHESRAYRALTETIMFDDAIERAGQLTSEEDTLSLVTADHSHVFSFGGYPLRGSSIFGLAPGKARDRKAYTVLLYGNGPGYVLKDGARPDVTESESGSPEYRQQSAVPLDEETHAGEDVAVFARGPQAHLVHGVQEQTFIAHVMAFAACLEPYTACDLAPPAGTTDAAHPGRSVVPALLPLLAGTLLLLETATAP
# T2 sequence (P98170 whole entry): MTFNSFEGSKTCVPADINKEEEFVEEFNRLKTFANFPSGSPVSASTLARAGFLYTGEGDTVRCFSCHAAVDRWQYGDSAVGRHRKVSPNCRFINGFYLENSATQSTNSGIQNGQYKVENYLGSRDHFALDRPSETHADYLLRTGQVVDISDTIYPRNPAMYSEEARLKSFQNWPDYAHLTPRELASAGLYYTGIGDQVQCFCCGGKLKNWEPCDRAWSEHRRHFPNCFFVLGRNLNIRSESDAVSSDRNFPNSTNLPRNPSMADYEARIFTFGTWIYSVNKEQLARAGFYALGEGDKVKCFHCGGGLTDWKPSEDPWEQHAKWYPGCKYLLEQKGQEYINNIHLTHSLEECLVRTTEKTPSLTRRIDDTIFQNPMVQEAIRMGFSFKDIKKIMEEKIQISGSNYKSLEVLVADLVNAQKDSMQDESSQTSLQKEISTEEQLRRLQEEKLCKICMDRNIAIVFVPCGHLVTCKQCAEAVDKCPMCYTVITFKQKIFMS
structure (smiles),measurement,setting,value
COC(=O)C1CC23C=CCN4CCC5(c6ccccc6NC15C2C)C43 (centres undefined),EC50,BJ [1],0.612 µM (active)
same,EC50,[2],7.37 µM (inconclusive)
same,EC50,BJ [3],< 0.104 µM (active)
same,EC50,[4],0.495 µM (active)
same,EC50,BJ [5],7.77 µM (active)
same,EC50,[6],0.134 µM (active)
same,EC50,BJ [7],0.574 µM (inconclusive)
same,EC50,[8],1.07 µM (inconclusive)
same,EC50,[9],2.28 µM (active)
same,EC50,[10],7.37 µM (active)
same,EC50,[11],4.2 µM (active)
same,EC50,[12],1.07 µM (active)
same,EC50,[13],1.13 µM (active)
same,EC50,[14],1.13 µM (inconclusive)
Cc1cccc(-c2nc3c(c(SCC(=O)c4ccc(O)c(O)c4)n2)CCCC3)c1,IC50,[15],> 100 µM (inactive)
same,IC50,[16],78.5 µM (active)
COc1ccc2c(C)cc(SCC(=O)Nc3ccc(Cl)cn3)nc2c1,IC50,[17],> 100 µM (inactive)
same,IC50,[18],> 100 µM (not active)
CCN(c1ccccc1)S(=O)(=O)c1ccc(C(=O)N(CCCN(C)C)c2nc3cc4c(cc3s2)OCO4)cc1,AC50,[19],11.1 µM (active)
same,EC50,[20],5.31 µM (active)
COc1ccc(-n2c(SCC(=O)c3ccc(O)c(O)c3)nnc2-c2ccc(C)cc2)cc1,IC50,[15],5.84 µM (active)
same,IC50,[16],> 100 µM (inactive)
COC(=O)c1ccccc1NC(=O)C1CCN(C(=O)c2cc(OC)cc(OC)c2)CC1,EC50,T-cell,0.641 µM (active)
Cc1cc(C)c(OCC(=O)Nc2nc(-c3ccccn3)cs2)c(C)c1,IC50,H9c2,10 µM (active)
same,EC50,Streptococcus,5.71 µM (active)
same,EC50,[21],2.75 µM (active)
same,EC50,[22],2.47 µM (active)
same,EC50,[23],8.87 µM (active)
same,IC50,Beta-galactosidase,> 66.6 µM (inactive)
